# Results taken from ChEMBL document CHEMBL1201862, “PubChem BioAssay data set” (2004).
#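 Following 48 hours of exposure in 96-well plates, responses at five concentrations were used to interpolate endpoints linearly. GI50 = concentration required for 50% inhibition of growth.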 Active and inactive are the calls of the source. Rule as the data show it: active = GI50 up to about 1.1 µM and inactive = higher.
# Columns and labels:
# Experiment in all cases: DTP human tumour cell line panel, 48 h
# SF-295 = tested on: SF-295
# TK-10 = tested on: TK-10
# PC-3 = tested on: PC-3
# MDA-MB-435 = tested on: MDA-MB-435
# Malme-3M = tested on: Malme-3M
# CAKI-1 = tested on: CAKI-1
# ACHN = tested on: ACHN
# LOX IMVI = tested on: LOX IMVI
# IGROV-1 = tested on: IGROV-1
# MCF7 = tested on: MCF7
# RPMI-8226 = tested on: RPMI-8226
# A498 = tested on: A498
# K562 = tested on: K562
# SNB-75 = tested on: SNB-75
# HOP-92 = tested on: HOP-92
# SK-OV-3 = tested on: SK-OV-3
# SK-MEL-2 = tested on: SK-MEL-2
# BT-549 = tested on: BT-549
# NCI-H460 = tested on: NCI-H460
# NCI-H522 = tested on: NCI-H522
# NCI/ADR-RES = tested on: NCI/ADR-RES
# OVCAR-8 = tested on: OVCAR-8
# HOP-62 = tested on: HOP-62
# COLO 205 = tested on: COLO 205
# HCC 2998 = tested on: HCC 2998
# HCT-15 = tested on: HCT-15
# SK-MEL-5 = tested on: SK-MEL-5
# RXF 393 = tested on: RXF 393
# U-251 = tested on: U-251
# KM12 = tested on: KM12
# UACC-62 = tested on: UACC-62
# UACC-257 = tested on: UACC-257
# MOLT-4 = tested on: MOLT-4
# MDA-MB-231 = tested on: MDA-MB-231
# SW-620 = tested on: SW-620
# EKVX = tested on: EKVX
# SF-539 = tested on: SF-539
# NCI-H23 = tested on: NCI-H23
# SR = tested on: SR
# DU-145 = tested on: DU-145
# SK-MEL-28 = tested on: SK-MEL-28
# OVCAR-5 = tested on: OVCAR-5
# NCI-H226 = tested on: NCI-H226
# HL-60 = tested on: HL-60
# OVCAR-4 = tested on: OVCAR-4
# OVCAR-3 = tested on: OVCAR-3
# SNB-19 = tested on: SNB-19
# 786-0 = tested on: 786-0
# T47D = tested on: T47D
# UO-31 = tested on: UO-31
# MDA-N = tested on: MDA-N
# CCRF-CEM = tested on: CCRF-CEM
# Hs-578T = tested on: Hs-578T
smiles,measurement,setting,value
C=CCN1C(=O)/C(=C/c2ccco2)N=C1SC1OC(COC(C)=O)C(OC(C)=O)C(OC(C)=O)C1OC(C)=O (configuration not stated),GI50,SF-295,> 100 µM (inactive)
same,GI50,TK-10,> 100 µM (inactive)
same,GI50,PC-3,> 100 µM (inactive)
same,GI50,MDA-MB-435,> 100 µM (inactive)
same,GI50,Malme-3M,89.5 µM (inactive)
same,GI50,CAKI-1,> 100 µM (inactive)
same,GI50,ACHN,> 100 µM (inactive)
same,GI50,LOX IMVI,> 100 µM (inactive)
same,GI50,IGROV-1,> 100 µM (inactive)
same,GI50,MCF7,62.5 µM (inactive)
same,GI50,RPMI-8226,31.6 µM (inactive)
same,GI50,A498,> 100 µM (inactive)
same,GI50,K562,39.8 µM (inactive)
same,GI50,SNB-75,> 100 µM (inactive)
same,GI50,HOP-92,72.9 µM (inactive)
same,GI50,SK-OV-3,> 100 µM (inactive)
same,GI50,SK-MEL-2,> 100 µM (inactive)
same,GI50,BT-549,> 100 µM (inactive)
same,GI50,NCI-H460,> 100 µM (inactive)
same,GI50,NCI-H522,15.9 µM (inactive)
same,GI50,NCI/ADR-RES,> 100 µM (inactive)
same,GI50,OVCAR-8,> 100 µM (inactive)
same,GI50,HOP-62,> 100 µM (inactive)
same,GI50,COLO 205,> 100 µM (inactive)
same,GI50,HCC 2998,> 100 µM (inactive)
same,GI50,HCT-15,88.1 µM
same,GI50,SK-MEL-5,> 100 µM (inactive)
same,GI50,RXF 393,44 µM (inactive)
same,GI50,U-251,> 100 µM (inactive)
same,GI50,KM12,> 100 µM (inactive)
same,GI50,UACC-62,83.9 µM (inactive)
same,GI50,UACC-257,> 100 µM (inactive)
same,GI50,MOLT-4,32.7 µM (inactive)
same,GI50,MDA-MB-231,> 100 µM (inactive)
same,GI50,SW-620,> 100 µM (inactive)
same,GI50,EKVX,> 100 µM (inactive)
same,GI50,SF-539,> 100 µM (inactive)
same,GI50,NCI-H23,> 100 µM (inactive)
same,GI50,SR,38.9 µM (inactive)
same,GI50,DU-145,80.2 µM (inactive)
same,GI50,SK-MEL-28,> 100 µM (inactive)
same,GI50,OVCAR-5,> 100 µM (inactive)
same,GI50,NCI-H226,78.3 µM (inactive)
same,GI50,HL-60,13.2 µM (inactive)
same,GI50,OVCAR-4,> 100 µM (inactive)
same,GI50,OVCAR-3,> 100 µM (inactive)
CN(C)C1COC2Cc3ccccc3C1O2 (configuration not stated),GI50,PC-3,> 100 µM (inactive)
same,GI50,MDA-MB-435,> 100 µM (inactive)
same,GI50,Malme-3M,> 100 µM (inactive)
same,GI50,SNB-19,> 100 µM (inactive)
same,GI50,IGROV-1,> 100 µM (inactive)
same,GI50,MCF7,> 100 µM (inactive)
same,GI50,RPMI-8226,> 100 µM (inactive)
same,GI50,786-0,> 100 µM (inactive)
same,GI50,A498,> 100 µM (inactive)
same,GI50,T47D,> 100 µM (inactive)
same,GI50,SK-MEL-2,> 100 µM (inactive)
same,GI50,NCI-H460,> 100 µM (inactive)
same,GI50,NCI-H522,> 100 µM (inactive)
same,GI50,NCI/ADR-RES,> 100 µM (inactive)
same,GI50,HOP-62,> 100 µM (inactive)
same,GI50,COLO 205,> 100 µM (inactive)
same,GI50,HCC 2998,> 100 µM (inactive)
same,GI50,UO-31,> 100 µM (inactive)
same,GI50,SK-MEL-5,> 100 µM (inactive)
same,GI50,U-251,> 100 µM (inactive)
same,GI50,MDA-N,> 100 µM (inactive)
same,GI50,KM12,> 100 µM (inactive)
same,GI50,UACC-62,> 100 µM (inactive)
same,GI50,CCRF-CEM,> 100 µM (inactive)
same,GI50,UACC-257,> 100 µM (inactive)
same,GI50,MOLT-4,> 100 µM (inactive)
same,GI50,MDA-MB-231,> 100 µM (inactive)
same,GI50,SW-620,> 100 µM (inactive)
same,GI50,EKVX,> 100 µM (inactive)
same,GI50,SF-539,> 100 µM (inactive)
same,GI50,DU-145,> 100 µM (inactive)
same,GI50,SK-MEL-28,> 100 µM (inactive)
same,GI50,NCI-H226,> 100 µM (inactive)
same,GI50,HL-60,> 100 µM (inactive)
same,GI50,Hs-578T,> 100 µM (inactive)
same,GI50,OVCAR-3,> 100 µM (inactive)
